We go through 1 compound from article PMC13114161 (Antibiotics, 2026).

Like-named read-outs stand apart in the source and are kept apart here.

For data set [1], the system named is P. aeruginosa ATCC 27853. As to the kind of experiment: Nitrocefin assay for outer-membrane permeabilization. Type of data set: cell-based, Pseudomonas aeruginosa. The source says:
The significant toxicity of previously identified EPIs has prevented their clinical use. So, understanding the TXA11114 mechanism of action (MoA) was of paramount importance to eliminate off-target effects that may arise from other activities besides efflux pump inhibition. Historically EPIs are known to augment the action of traditional antibiotics by compromising the integrity of bacterial membranes, allowing increased drug accumulation. One of the major concerns of earlier EPIs was their ability to disrupt bacterial membranes. Two approaches were taken to investigate if membrane disruption played a role in the potentiation of antibiotics seen in Table 2 by TXA11114: (1) a flow cytometry-based propidium iodide (PI) assay to monitor inner-membrane permeabilization, and (2) a nitrocefin (NCF) assay to monitor outer-membrane permeabilization. NCF is a chromogenic cephalosporin that changes from yellow to red when the amide bond in the β-lactam ring is hydrolyzed by a β-lactamase. The rate of hydrolysis in intact cells is slow, as it is limited by the rate of diffusion of […]. […] Cells with intact membranes exclude PI and remain non-fluorescent, while cells with compromised membrane integrity allow PI to enter and bind to DNA, resulting in fluorescence. […]

A short description of data set [2]: Plasma stability. The class given is in vitro ADME, human. The procedure:
Plasma stability was assessed by incubating the compound in plasma at 37 °C and monitoring parent compound disappearance over time by LC-MS/MS. Half-life values were calculated assuming first-order kinetics.

Data set [3] deals with T1, CYP2D6 (Homo sapiens, UniProt P10635).
T1 construct: from tissue; host or cells: human liver microsomes
The data set is described as follows: Cytochrome P450 inhibition. Type of data set: in vitro ADME. Conditions: human liver microsomes; read-out: CYP Inhibition IC50, 2D6. Here is the method:
(§1) Inhibition of CYP1A2, CYP2D6, CYP2C9, CYP2C19, and CYP3A4 by TXA11114 was assessed in human liver microsomes by measuring the inhibition of probe substrate metabolism. Phenacetin, bufuralol, diclofenac, S-mephenytoin, and midazolam were used as probe substrates for CYP1A2, CYP2D6, CYP2C9, CYP2C19, and CYP3A4, respectively. Corresponding metabolites (acetaminophen, OH-bufuralol, 4-OH diclofenac, 4-OH mephenytoin, and 1-OH midazolam) were quantified by LC-MS/MS. Selective inhibitors (fluvoxamine (CYP1A2), quinidine (CYP2D6), sulfaphenazole (CYP2C9), ticlopidine (CYP2C19), and ketoconazole (CYP3A4)) were used as positive controls. Test and control compounds, prepared in DMSO at various concentrations, were spiked into 2× microsomal reaction mixtures, and 50 µL aliquots were transferred to individual wells. Probe substrates (25 µL, 4× concentration) were added to the respective wells and pre-incubated for 5 min at 37 °C. Reactions were initiated by the addition of 25 µL NADPH (4×) and incubated for 5 min (CYP3A4), 10 min (CYP1A2, CYP2D6, CYP2C9), or 20 min (CYP2C19). Reactions were quenched with 100 µL ice-cold acetonitrile containing glipizide as an internal standard. Plates were centrifuged at 4000 rpm for 15 min, and 100 µL supernatants were analyzed by LC-MS/MS in MRM mode. […] Percent inhibition was calculated as 100 − percent activity. IC50 values were determined using GraphPad Prism (version 5.02).

The target in data set [4] is T2, CYP3A4 (Homo sapiens, UniProt P08684).
T2 construct: from tissue; host or cells: human liver microsomes
As to the kind of experiment: Cytochrome P450 inhibition. The class given is in vitro ADME. Conditions: human liver microsomes; read-out: CYP Inhibition IC50, 3A4. Here is the method: as §1
For orientation: Liver microsomes are a subcellular fraction often used to study metabolism.

The test system of data set [5] is P. aeruginosa. As to the kind of experiment: MIC potentiation of antimicrobial agents by EPIs. Type of data set: cell-based, Pseudomonas aeruginosa. Conditions: 1/16 MIC. The procedure: In contrast, the activities of gentamicin and imipenem were unchanged in the presence of TXA11114 under the conditions tested. Although gentamicin can be transported by the MexXY efflux system, the absence of potentiation in this assay is not sufficient to draw conclusions regarding MexXY inhibition or overall efflux specificity.
MIC assays for potentiation of antimicrobial activity against P. aeruginosa were performed as described previously.

Data set [6] has as its system P. aeruginosa ATCC 27853. The data set is described as follows: Ethidium bromide efflux inhibition. The class given is cell-based, Pseudomonas aeruginosa.
Text: In the first assay, the efflux of ethidium bromide (EtBr) by P. aeruginosa cells is studied in the presence of different concentrations of TXA11114.
A short description of data set [7]: Initial nephrotoxicity screen (BUN, creatinine). Type of data set: in vivo, Sprague Dawley rats. Conditions: male rats, 10 mg/kg IV QD, 24 h after dosing. Here is the method: BUN and CRE analyses were conducted by SRI International (Menlo Park, CA, USA). Adult male Sprague Dawley rats (n = 3 per group) received TXA11114 (10 mg/kg, IV, QD), and blood samples were collected 24 h after dosing.

T2 sequence (P08684 whole entry): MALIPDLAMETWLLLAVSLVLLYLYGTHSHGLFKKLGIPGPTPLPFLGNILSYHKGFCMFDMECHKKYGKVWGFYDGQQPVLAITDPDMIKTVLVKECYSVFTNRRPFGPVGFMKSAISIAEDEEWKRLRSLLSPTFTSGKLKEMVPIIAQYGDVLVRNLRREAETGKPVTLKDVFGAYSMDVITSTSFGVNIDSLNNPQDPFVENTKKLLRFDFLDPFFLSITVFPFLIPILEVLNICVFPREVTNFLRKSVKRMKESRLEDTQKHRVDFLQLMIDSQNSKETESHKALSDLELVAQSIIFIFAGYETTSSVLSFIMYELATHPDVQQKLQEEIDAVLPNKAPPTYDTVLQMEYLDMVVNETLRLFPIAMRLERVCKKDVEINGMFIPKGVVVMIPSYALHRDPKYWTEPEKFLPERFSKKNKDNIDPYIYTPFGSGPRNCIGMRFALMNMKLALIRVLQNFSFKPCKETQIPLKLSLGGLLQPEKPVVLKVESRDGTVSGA
T1 sequence (P10635 whole entry): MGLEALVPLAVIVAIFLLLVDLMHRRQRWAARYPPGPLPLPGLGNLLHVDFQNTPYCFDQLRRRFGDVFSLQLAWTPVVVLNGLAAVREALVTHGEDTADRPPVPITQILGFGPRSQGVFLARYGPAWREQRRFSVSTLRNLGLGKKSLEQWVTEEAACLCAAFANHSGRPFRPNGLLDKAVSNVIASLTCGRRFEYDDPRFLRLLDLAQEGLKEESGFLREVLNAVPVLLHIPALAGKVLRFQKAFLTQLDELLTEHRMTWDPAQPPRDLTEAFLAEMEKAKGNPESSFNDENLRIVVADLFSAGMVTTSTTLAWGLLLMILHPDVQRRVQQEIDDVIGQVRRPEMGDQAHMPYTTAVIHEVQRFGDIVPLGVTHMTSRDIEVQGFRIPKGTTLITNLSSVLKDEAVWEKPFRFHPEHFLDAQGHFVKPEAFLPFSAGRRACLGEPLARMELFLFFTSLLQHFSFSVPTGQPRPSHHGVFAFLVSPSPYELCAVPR

As for `NCC(F)C[C@@H](N)CNC(=O)c1cc2ccc(-c3ccc(F)cc3)cc2[nH]1` (stereo partly drawn) [TXA11114, N-((2R)-2,5-diamino-4-fluoropentyl)-6-(4-fluorophenyl)-1H-indole-2-carboxamide], the “Concentrations at which impact on NCF hydrolysis is minimal” value in data set [1] is “below 25 μg/mL”. In addition, the half-life was over 2 h in data set [2] (across four species (human, dog, rat, and mouse), read-out: Plasma stability half-life); over 2 h in data set [2] (human, read-out: Plasma stability t1/2). The IC50 (usually the concentration that inhibits the measured activity by half) in data set [3] was over 100 µM; in data set [4], 63 µM. Besides, the “Lowest effective concentration for potentiation” value in data set [5] is listed as 6.25 µg/mL. The “Minimal potentiation concentration (MPC)” value in data set [6] (elevated inoculum of EtBr assay (approximately 1000-fold greater)) turned out to be 12.5 µg/mL. Further, the “EtBr efflux blockade (fluorescence)” value in data set [6] (increasing TXA11114 concentration) was “fluorescence intensity increased proportionally”. Further, the “Blood Urea Nitrogen” value in data set [7] was found to be 15.3 mg/dL. In data set [7], this compound registered a Creatinine of 0.22 mg/dL.
